Source: US11702422B2, “Imidazopyridazines as modulators of IL-17” (Janssen Pharmaceutica NV, priority 2020, dated 2023)

Experiments:
[1] = biological target: IL-17A(FLAG-Tagged): IL-17RA(His-Tagged) (Homo sapiens, UniProt Q16552, K93Q); test: IL-17A(FLAG-Tagged): IL-17RA(His-Tagged) Binding Disruption Eu-HTRF Assay; settings: IL-17A/IL-17RA binding disruption, simple average if tested more than once
In short: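 IC50 comes from a one-site competition fit of the HTRF 665/620 nm ratio. Compound dilutions (2-fold, 22 points) were held 1 h rt with FLAG-tagged IL-17A dimer, then His-tagged IL-17RA plus Eu-cryptate anti-FLAG and D2 anti-His antibodies were added for 2 h rt.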

[2] = tested on: IL-17A-induced G-CSF production in human normal keratinocyte (NHK); test: NHK Assay: IL-17A-induced G-CSF production in human normal keratinocytes; type: cell-based; settings: 24 h, adult normal human keratinocytes, IL-17A 5 ng/mL, simple average if tested more than once
In short: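 HTRF read-out of supernatant G-CSF, quantified from a standard curve, gave IC50 values. Adult keratinocytes, 3000-4000 cells/well, received human IL-17A (5 ng/mL final) pre-mixed 1 h at rt with compound, in 5% FBS and 0.2% DMSO, 24 h at 37° C.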

Chain of UniProt Q16552 (Q16552 with tags, fused parts or gaps K93Q): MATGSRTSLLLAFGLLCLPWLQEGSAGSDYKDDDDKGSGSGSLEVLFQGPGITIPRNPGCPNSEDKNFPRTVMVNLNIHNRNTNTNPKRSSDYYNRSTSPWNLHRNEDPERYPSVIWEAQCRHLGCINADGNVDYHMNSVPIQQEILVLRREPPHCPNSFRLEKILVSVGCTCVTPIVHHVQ

| SMILES | IC50 [1] [nM] | IC50 ([2]; Homo sapiens, Keratinocyte) [nM] | IC50 [2] [nM] |
| --- | --- | --- | --- |
| CCc1nonc1C(=O)N[C@H](c1cn2ncc([C@H](NC(=O)CCC(F)(F)F)C3CC3)cc2n1)C1CCC(F)(F)CC1 [Example 156, N—((S)-(7-((R)-Cyclopropyl(4,4,4-trifluorobutanamido)methyl)imidazo[1,2-b]pyridazin-2-yl)(4,4-difluorocyclohexyl)methyl)-4-ethyl-1,2,5-oxadiazole-3-carboxamide] | 13 | 60 | – |
| CC(C)c1oncc1C(=O)N[C@H](c1cn2ncc([C@H](NC(=O)CCC(F)(F)F)C3CC3)cc2n1)C1CCC(F)(F)CC1 [Example 89, N—((S)-(7-((R)-Cyclopropyl(4,4,4-trifluorobutanamido)methyl)imidazo[1,2-b]pyridazin-2-yl)(4,4-difluorocyclohexyl)methyl)-5-isopropylisoxazole-4-carboxamide] | 43 | – | 65 |
| Cc1nonc1C(=O)N[C@@H](COC(C)(C)C)c1cn2ncc(C(NC(=O)CCC(F)(F)F)C3CC3)cc2n1 (single isomer, unassigned) [Example 315, N—((R)-2-(tert-Butoxy)-1-(7-((S*)-cyclopropyl(4,4,4-trifluorobutanamido)methyl)imidazo[1,2-b]pyridazin-2-yl)ethyl)-4-methyl-1,2,5-oxadiazole-3-carboxamide] | 13000 | – | > 20000 |
| O=C(CCC(F)(F)F)N[C@@H](c1cnn2cc([C@@H](NC(=O)c3ccnc(OCC(F)F)c3)C3CCC(F)(F)CC3)nc2c1)C1CC1 [Example 179, N—((S)-(7-((R)-Cyclopropyl(4,4,4-trifluorobutanamido)methyl)imidazo[1,2-b]pyridazin-2-yl)(4,4-difluorocyclohexyl)methyl)-2-(2,2-difluoroethoxy)isonicotinamide] | 45 | 450 | – |

The next lines start with results.

| IC50 [1] [nM] | SMILES | IC50 ([2]; Homo sapiens, Keratinocyte) [nM] | IC50 [2] [nM] |
| --- | --- | --- | --- |
| 54 | CC(C)n1nccc1C(=O)N[C@H](c1cn2ncc([C@H](NC(=O)CCC(F)F)C3CC3)cc2n1)C1CCC(F)(F)CC1 [Example 280, N—((S)-(7-((R)-Cyclopropyl(4,4-difluorobutanamido)methyl)imidazo[1,2-b]pyridazin-2-yl)(4,4-difluorocyclohexyl)methyl)-1-isopropyl-1H-pyrazole-5-carboxamide] | 120 | – |
| 630 | Cc1nonc1C(=O)N[C@H](c1cn2ncc([C@H](NC(=O)[C@H](F)[C@H](C)C(F)(F)F)C3CC3)cc2n1)C1CCC(F)(F)CC1 (relative stereo) [Example 353, N—((S)-(7-((R)-Cyclopropyl((2R*,3S*)-2,4,4,4-tetrafluoro-3-methylbutanamido)methyl)imidazo[1,2-b]pyridazin-2-yl)(4,4-difluorocyclohexyl)methyl)-4-methyl-1,2,5-oxadiazole-3-carboxamide] | 970 | – |
| 750 | Cn1nnnc1C(=O)N[C@H](c1cn2ncc([C@H](NC(=O)CCC(F)(F)F)C3CC3)cc2n1)C1CCC(F)(F)CC1 [Example 468, N—((S)-(7-((R)-Cyclopropyl(4,4,4-trifluorobutanamido)methyl)imidazo[1,2-b]pyridazin-2-yl)(4,4-difluorocyclohexyl)methyl)-1-methyl-1H-tetrazole-5-carboxamide] | 1700 | – |
| 450 | N#Cc1ccc(C(=O)N[C@H](c2cn3ncc([C@H](NC(=O)CCC(F)(F)F)C4CC4)cc3n2)C2CCC(F)(F)CC2)cc1 [Example 213, 4-Cyano-N—((S)-(7-((R)-cyclopropyl(4,4,4-trifluorobutanamido)methyl)imidazo[1,2-b]pyridazin-2-yl)(4,4-difluorocyclohexyl)methyl)benzamide] | 20000 | – |
| 73 | CC(C)c1cncc(C(=O)N[C@H](c2cn3ncc([C@H](NC(=O)CCC(F)(F)F)C4CC4)cc3n2)C2CCC(F)(F)CC2)c1 [Example 415, N—((S)-(7-((R)-Cyclopropyl(4,4,4-trifluorobutanamido)methyl)imidazo[1,2-b]pyridazin-2-yl)(4,4-difluorocyclohexyl)methyl)-5-isopropylnicotinamide] | 500 | – |
